Values joined by “and” are separate entries in the source; they are usually repeats but may differ in a detail not shown here. Identical values can stand only once.
Tests used:
[1] = test system: renovascular hypertensive rats; assay: Effect on reducing blood pressure of renovascular hypertensive rats by single oral administration; type: in vivo, Wistar rats; details: for change in vivo at 0.5 mg/kg / inhibition in vivo at 0.5 mg/kg / change in vivo at 1 mg/kg / inhibition in vivo at 1 mg/kg / change in vivo at 2 mg/kg / inhibition in vivo at 2 mg/kg: Rattus norvegicus, single oral administration; for change in vivo at 0.5 mg/kg / change in vivo at 1 mg/kg / change in vivo at 2 mg/kg: RHR, read-out: Variations on heart rate; for inhibition in vivo at 0.5 mg/kg / inhibition in vivo at 1 mg/kg / inhibition in vivo at 2 mg/kg: two-kidney one-clip RHR, measured 1-10 h, read-out: Maximum blood pressure reduction; for blood pressure reduction effect compared with Azilsartan medoxomil: renal artery-ligated rat, result in words
[2] = test system: normal rats; assay: Effect on blood pressure of normal rats by single oral administration; type: in vivo, Wistar rats; details: for inhibition in vivo at 0.5 mg/kg / inhibition in vivo at 1 mg/kg / inhibition in vivo at 2 mg/kg / change in vivo at 0.5 mg/kg / change in vivo at 1 mg/kg / change in vivo at 2 mg/kg: Rattus norvegicus, po, single, normal rats; for inhibition in vivo at 0.5 mg/kg / inhibition in vivo at 1 mg/kg / inhibition in vivo at 2 mg/kg: 8 h, read-out: blood pressure reduction at 8 h after the administration; for inhibition in vivo at 0.5 mg/kg / change in vivo at 0.5 mg/kg: 0.5 mg/kg p.o.; for inhibition in vivo at 1 mg/kg / change in vivo at 1 mg/kg: 1.0 mg/kg p.o.; for inhibition in vivo at 2 mg/kg / change in vivo at 2 mg/kg: 2.0 mg/kg p.o.; for change in vivo at 0.5 mg/kg / change in vivo at 1 mg/kg / change in vivo at 2 mg/kg: read-out: variations on heart rate

| Compound | Maximum blood pressure reduction ([1]; rat, in vivo) | Variations on heart rate ([1]; rat, in vivo) | blood pressure reduction at 8 h after the administration ([2]; rat, in vivo) | change in vivo at 0.5 mg/kg [1] | inhibition in vivo at 0.5 mg/kg [1] | change in vivo at 1 mg/kg [1] | inhibition in vivo at 1 mg/kg [1] | change in vivo at 2 mg/kg [1] | inhibition in vivo at 2 mg/kg [1] | inhibition in vivo at 0.5 mg/kg [2] | inhibition in vivo at 1 mg/kg [2] | inhibition in vivo at 2 mg/kg [2] | change in vivo at 0.5 mg/kg [2] | change in vivo at 1 mg/kg [2] | change in vivo at 2 mg/kg [2] | blood pressure reduction effect compared with Azilsartan medoxomil [1] |
| --- | --- | --- | --- | --- | --- | --- | --- | --- | --- | --- | --- | --- | --- | --- | --- | --- |
| 1-(6-methypyridazine-2-methoxy-carbonyloxy)ethyl-2-ethoxy-1-{[2′-(5-oxo-4,5-dihydro-1,2,4-oxadiazole)-3-yl)biphenyl-4-yl]methyl}-1H-benzimidazole-7-carboxylate [QR01029] | 12 ± 2.1% and 15 ± 4.3% and 24 ± 5.2% | −4 ± 3% and −5 ± 2% and −8 ± 2% | 4.2 ± 3.2% and 5.8 ± 2.2% and 3.4 ± 4.8% | – | – | – | – | – | – | – | – | – | – | – | – | – |
| CCOc1nc2cccc(C(=O)OCOC(=O)OC(C)C)c2n1Cc1ccc(-c2ccccc2-c2noc(=O)[nH]2)cc1 [QR01002] | – | – | – | -5 ± 4% | 12 ± 2.4% | -8 ± 3% | 15 ± 1.8% | -6 ± 4% | 19 ± 4.2% | 5.6 ± 2.3% | 6.4 ± 2.1% | 6.4 ± 2.1% | -4 ± 5% | -5 ± 4% | 5% | – |
| CCOc1nc2cccc(C(=O)OCCOC(C)=O)c2n1Cc1ccc(-c2ccccc2-c2noc(=O)[nH]2)cc1 [QR01004] | – | – | – | 0% | 7 ± 1.2% | -5 ± 3% | 10 ± 2.3% | -3 ± 1% | 12 ± 3.4% | 7.5 ± 1.4% | 6.7 ± 1.3% | 5.7 ± 2.6% | -1 ± 2% | -2 ± 1% | 3% | – |
| CCOc1nc2cccc(C(=O)OCc3nc(C)c(C)nc3C)c2n1Cc1ccc(-c2ccccc2-c2noc(=O)[nH]2)cc1 [QR01006] | – | – | – | -4 ± 2% | 14 ± 3.4% | -5 ± 3% | 18 ± 3.6% | -5 ± 3% | 24 ± 4.1% | 6.3 ± 2.8% | 7.2 ± 1.9% | 4.2 ± 2.1% | -3 ± 4% | 2% | -5 ± 6% | – |
| CCOc1nc2cccc(C(=O)OC3COC4C(O[N+](=O)[O-])COC34)c2n1Cc1ccc(-c2ccccc2-c2noc(=O)[nH]2)cc1 (centres unmarked) [QR01007] | – | – | – | -3 ± 1% | 10 ± 1.5% | -8 ± 3% | 12 ± 2% | -5 ± 2% | 18 ± 3.5% | 3.5 ± 3.4% | 2.5 ± 4.6% | 3.7 ± 4.3% | -3 ± 2% | -7 ± 2% | 5% | – |
| CCOc1nc2cccc(C(=O)OCCCCO[N+](=O)[O-])c2n1Cc1ccc(-c2ccccc2-c2noc(=O)[nH]2)cc1 [QR01008] | – | – | – | -8 ± 5% | 17 ± 3.1% | -15 ± 3% | 28 ± 3.4% | -18 ± 5% | 35 ± 3.4% | 4.5 ± 2.7% | 4.6 ± 2.5% | 2.1 ± 2.4% | -6 ± 2% | 4% | -2 ± 3% | close to that of Azilsartan medoxomil |
| CCOc1nc2cccc(C(=O)Oc3ccc(OCc4c(-c5ccccc5)no[n+]4[O-])cc3)c2n1Cc1ccc(-c2ccccc2-c2noc(=O)[nH]2)cc1 [QR01010] | – | – | – | 5% | 21 ± 4.7% | -3 ± 1% | 26 ± 5.4% | -5 ± 3% | 30 ± 3.6% | 2.1 ± 3.2% | 4.6 ± 4.7% | 5.7 ± 2.3% | 5% | -5 ± 1% | -4 ± 5% | – |
| CCOc1nc2cccc(C(=O)OCCCCOc3no[n+]([O-])c3S(=O)(=O)c3ccccc3)c2n1Cc1ccc(-c2ccccc2-c2noc(=O)[nH]2)cc1 [QR01011] | – | – | – | -5 ± 3% | 16 ± 4.3% | -8 ± 6% | 28 ± 1.3% | -6 ± 4% | 29 ± 4% | 2.7 ± 3.6% | 3.8 ± 2.1% | 3.7 ± 5% | -3 ± 5% | 6% | -5 ± 3% | close to that of Azilsartan medoxomil |
| CCOc1nc2cccc(C(=O)ONC(=N)Nc3ccccc3)c2n1Cc1ccc(-c2ccccc2-c2noc(=O)[nH]2)cc1 [QR01012] | – | – | – | 2% | 17 ± 3.7% | -3 ± 4% | 22 ± 1% | -5 ± 2% | 27 ± 2.8% | 1.9 ± 3.2% | 3.9 ± 2.1% | 4.6 ± 2.4% | 1% | -3 ± 2% | -3 ± 4% | – |
| CCOc1nc2cccc(C(=O)OCc3oc(=O)c(=O)oc3C)c2n1Cc1ccc(-c2ccccc2-c2noc(=O)[nH]2)cc1 [QR01014] | – | – | – | -2 ± 3% | 16 ± 3.5% | -4 ± 2% | 21 ± 4.3% | -4 ± 5% | 26 ± 2.1% | 2.9 ± 3.4% | 2.7 ± 3.6% | 4.6 ± 3.2% | -4 ± 2% | -3 ± 3% | 4% | – |
| CCOC(=O)C(=O)OC(C)C(=O)COC(=O)c1cccc2nc(OCC)n(Cc3ccc(-c4ccccc4-c4noc(=O)[nH]4)cc3)c12 (centres unmarked) [QR01015] | – | – | – | 4% | 10 ± 1.5% | 2% | 12 ± 2% | 3% | 18 ± 3.5% | 3.7 ± 2.6% | 2.3 ± 1.8% | 1.8 ± 2.4% | 3% | 1% | -3 ± 3% | – |
| CCOc1nc2cccc(C(=O)OCCO[N+](=O)[O-])c2n1Cc1ccc(-c2ccccc2-c2noc(=O)[nH]2)cc1 [QR01016] | – | – | – | 1% | 11 ± 3.1% | 5% | 12 ± 9.2% | 4% | 15 ± 6.5% | 3.6 ± 2.8% | 4.2 ± 5.7% | 5.9 ± 3.2% | 1% | 5% | 3% | – |
| CCOc1nc2cccc(C(=O)OCc3c(C)no[n+]3[O-])c2n1Cc1ccc(-c2ccccc2-c2noc(=O)[nH]2)cc1 [QR01025] | – | – | – | 4 ± 6% | 18 ± 3.4% | -7 ± 5% | 22 ± 4.5% | -7 ± 3% | 28 ± 3.2% | 3.3 ± 3.2% | 6.2 ± 3.8% | 3.7 ± 4.1% | -2 ± 3% | 6% | -3 ± 4% | – |
| CCOc1nc2cccc(C(=O)OCc3no[n+]([O-])c3C(C)(C)C)c2n1Cc1ccc(-c2ccccc2-c2noc(=O)[nH]2)cc1 [QR01026] | – | – | – | -8 ± 6% | 16 ± 2.8% | -10 ± 5% | 24 ± 6.5% | -10 ± 6% | 31 ± 2.8% | 5.2 ± 3.2% | 4.3 ± 5.1% | 3.8 ± 4.5% | -5 ± 8% | -3 ± 7% | -4 ± 7% | – |
| CCOc1nc2cccc(C(=O)OC(OC(=O)OCc3nc(C)c(C)nc3C)C(C)C)c2n1Cc1ccc(-c2ccccc2-c2noc(=O)[nH]2)cc1 (centres unmarked) [QR01027] | – | – | – | -2 ± 3% | 14 ± 2% | -5 ± 3% | 18 ± 2.9% | -6 ± 4% | 23 ± 4.6% | 5.2 ± 3% | 4.8 ± 4.2% | 2.8 ± 3.9% | -3 ± 4% | 5% | -3 ± 4% | – |
| CCOc1nc2cccc(C(=O)OC(OC(=O)OCc3nc(C)c(C)nc3C)C(C)(C)C)c2n1Cc1ccc(-c2ccccc2-c2noc(=O)[nH]2)cc1 (centres unmarked) [QR01028] | – | – | – | -6 ± 2% | 15 ± 0.9% | -6 ± 4% | 18 ± 4.2% | -12 ± 5% | 25 ± 3.6% | 1.7 ± 5.3% | 3.9 ± 5.2% | 2.5 ± 4.6% | -4 ± 3% | -3 ± 4% | -2 ± 3% | – |

Reference: patent US9708306B2, “Benzimidazole derivatives and preparation process and pharmaceutical uses thereof” (WUHAN LL SCIENCE AND TECHNOLOGY DEVELOPMENT CO., LTD, priority 2015, dated 2017)
